Results as given in US20220370553A1, “PREBIOTIC-INDUCED ANTI-TUMOR IMMUNITY” (Sanford Burnham Prebys Medical Discovery Institute, priority 2019, published 2022).

Legend:
[1] = test system: SW1 (syngeneic NRAS mutant melanoma) cells; assay: SW1 melanoma growth with mucin and/or inulin; assay type: in vivo, C3H/HeOuJ mice; settings: 3% mucin in drinking water and/or 15% inulin diet from 14 days prior to inoculation
Source text: FIG. 17A Growth of SW1 mouse melanoma cells in C3H/HeOuJ mice that were fed with 0 or 3% mucin in drinking water and/or a diet enriched with 15% inulin, starting 14 days prior to (and continued after) tumor inoculation (n=10). FIG. 17B. […] Graphs show the mean±s.e.m. *P<0.05, **P<0.005,***P<0.001, ****P<0.0001 by two-way ANOVA with Tukey's correction.
Animals and tumor models. All experimental animal procedures were approved by the Institutional Animal Care and Use Committee of Sanford Burnham Prebys Medical Discovery Institute (SBP) and complied with all relevant ethical regulations for animal testing and research. C57BL/6 mice were obtained from Sanford Burnham Prebys Medical Discovery Institute. […] C3H/HeOuJ mice were purchased from Jackson laboratories. Male 6-8-week-old mice were used for all experiments. […] All mice were fed an autoclaved chow diet ad libitum (LabDiet 5K67, Purina Foods). […] Mouse selection for experiments was not formally randomized or blinded. For tumor growth experiments, mice were injected subcutaneously (s.c.) with 1×10^6 tumor cells. Tumor size was measured twice a week for calculation of tumor volume. Tumors were weighed at the time of excision.
Mucin and inulin treatment. For mucin treatment, C57BL/6 mice were subjected to control or water supplemented with 3% mucin (Lee Biosolutions) prior to (14 days) and during tumor inoculation. […]

SW1 tumor cells = assay: SW1 tumor growth in germ free mice colonized with minimal microbiota (ASF); assay type: in vivo, C3H/HeN mice; settings: two weeks of mucin, 24 days
Source text: Tumor size was monitored over the next 24 days (n=15).
Animals and tumor models. All experimental animal procedures were approved by the Institutional Animal Care and Use Committee of Sanford Burnham Prebys Medical Discovery Institute (SBP) and complied with all relevant ethical regulations for animal testing and research. C57BL/6 mice were obtained from Sanford Burnham Prebys Medical Discovery Institute. OT-I mice were bred at SBP to CD45.1 mice (B6.SJLB6.SJL-Ptprc^a Pepc^b/BoyJ) that were obtained from Jackson Laboratories. C3H/HeOuJ mice were purchased from Jackson laboratories. Male 6-8-week-old mice were used for all experiments. […] Briefly, fresh feces were collected and analyzed by bacterial 16S rRNA gene-specific PCR (30 cycles, universal bacteria primers 8F and 1391R) in combination with aerobic and anaerobic culture of feces in Brain Heart Infusion, Wilkins-Chalgren and Yeast Mold broths, and on Tryptic Soy Agar plates (all media from Difco™ Becton Dickinson) at 37° C. for 7 days. […] Briefly, genomic DNA was extracted from fecal samples and ASF bacteria were quantified by qPCR with species-specific primers. […] Tumor size was measured twice a week for calculation of tumor volume. […]
In order to test the requirement for gut microbiota in prebiotic-induced tumor control, experiments were conducted using mice with a defined, minimal microbiota. […] Tumor size was monitored over the next 24 days.

[2] = test system: intestinal epithelial cells; assay: qRT-PCR of inflammatory mediators in intestinal epithelial cells in vivo; set-up: species or system C57BL/6 mice; settings: mucin 3% in drinking water, naïve mice, 2 weeks
Source text: FIG. 15 illustrates effects of mucin and inulin on expression of inflammatory mediators by intestinal epithelial cells in vivo. qRT-PCR data are shown for mRNA levels of the indicated inflammatory mediators in intestinal epithelial cells from mucin or inulin-treated mice (n=4). Data are representative of two independent experiments. Graphs show the mean s.e.m. *P<0.05, **P<0.005, one-way ANOVA with Tukey's correction.
Isolation of intestinal epithelial cells. A 10 cm section of mouse small intestine was opened longitudinally, minced, washed in 150 mM NaCl containing 1 mM DTT, and then resuspended in dissociation buffer (130 mM NaCl, 10 mM EDTA, 10 mM Hepes [pH 7.4], 10% FCS, and 1 mM DTT). The sections were incubated at 37° C. for 30 min with vigorous shaking to release the epithelial cells from the lamina propria. The epithelial cell suspension was then carefully aspirated, centrifuged, and washed in ice-cold PBS.
The effect of mucin and inulin on intestinal epithelial cells was evaluated in vivo. To this end, mucin (3% in drinking water) or inulin (15% in chow) were administered to naïve C57BL/6 mice for 2 weeks. Intestinal epithelial cells were isolated from small intestine and were assessed for the level of select cytokines and chemokines that are implicated in the activation of the immune response and anti-tumor immunity.

fecal microbiota = assay: 16S sequencing of fecal microbiota, MC-38 colon cancer model; assay type: in vivo, C57BL/6 mice
Protocol: Bacterial DNA extraction and 16S library preparation. […] Mouse fecal pellets were frozen on dry ice, and stored at −80° C. Bacterial DNA was extracted using the QIAmp Fast DNA Stool Mini Kit (Qiagen). To ensure efficient cell lysis, a 5-min bead-beating step using a Mini-Beadbeater-16 was included (Biospec Products, OK, USA). Library preparation for the Illumina MiSeq platform was performed by amplification of the V3-V4 region of the bacterial 16S ribosomal DNA gene using
C. Adapter and barcode sequences for dual indices were used as described by Illumina. PCR clean up steps were performed with QIAquick 96-PCR Clean up kit (Qiagen, Germany), and library quantification was performed using a KAPA Library Quantification Kit for Illumina platforms (KAPA Biosystems, MA, USA). An Experion Automated Gel Electrophoresis System (Bio-Rad, CA, USA) was used to measure the DNA concentration and purity of the pooled libraries. The 16S libraries were sequenced at Novagene (Beijing, China) and the SBP sequencing Core.
16S sequencing data processing. The original FASTQ files from Illumina 250 basepair paired-end sequencing of the samples were processed using a novel 16S amplicon sequencing pipeline HiMap (http://github.com/taolonglab/himap; BioRxiv 565572). The output of HiMap is Operational Strain Unit (OSU) which contains one or more bacterial strains that best match the 16S sequence and cannot be further distinguished. The percentage similarity between the 16S sequence and the aligned region of 16S rRNA genes of the strains in the OSU is indicated. OSUs mapped to the same strains are grouped together (adding read counts) if percentage similarities are within 3%. Read counts are converted into relative abundance as described in HiMap. Log 10-transformed relative abundances were used for comparisons between samples under different experimental conditions.
The effects of inulin on the microbiota were evaluated in a colon cancer model. […] MC-38 mouse colorectal cancer cells (1×10^6) were inoculated, and diets were continued after inoculation.
(§1) P-values were calculated using paired one-tail Wilcoxon rank sum test.
as §1

[3] = B: 14 days after mucin feeding, A (prior to feeding) 0.001, p A vs B 0.001
[4] = C: 20 days post-tumor cell inoculation with mucin feeding
[5] = C: 20 days post-tumor cell inoculation with mucin feeding, p B vs C 0.006
[6] = C: 20 days post-tumor cell inoculation with mucin feeding, p B vs C 0.007
[7] = C: 20 days post-tumor cell inoculation with mucin feeding, p B vs C 0.011

Substance: mucin
- SW1 tumor growth [1]: attenuated tumor growth
- SW1 tumor growth (SW1 tumor cells): failed to attenuate tumor growth
- TNF-α mRNA level in intestinal epithelial cells [2]: elevated
- Abundance of phylotype group Clostridium cellulolyticum (93) (fecal microbiota; [3]): 0.055
- Abundance of phylotype group Dubosiella newyorkensis (93) (fecal microbiota; [3]): 0.044
- Abundance of phylotype group Staphylococcus saprophyticus (100) (fecal microbiota; B: 14 days after mucin feeding, A (prior to feeding) 0.001, p A vs B 0.005): 0.057
- Abundance of phylotype group Corynebacterium ammoniagenes (99) (fecal microbiota; B: 14 days after mucin feeding, A (prior to feeding) 0.001, p A vs B 0.006): 0.054
- Abundance of phylotype group Olsenella profusa (92) (fecal microbiota; B: 14 days after mucin feeding, A (prior to feeding) 0.001, p A vs B 0.023): 0.118
- Abundance of phylotype group Christensenella timonensis (88) / Anaerotruncus colihominis (88) (fecal microbiota; B: 14 days after mucin feeding, A (prior to feeding) 0.001, p A vs B 0.025): 0.010
- Abundance of phylotype group Gracilibacter thermotolerans (89) / Christensenella massiliensis (88) (fecal microbiota; B: 14 days after mucin feeding, A (prior to feeding) 0.001, p A vs B 0.036): 0.006
- Abundance of phylotype group Bifidobacterium pseudolongum (90) (fecal microbiota; B: 14 days after mucin feeding, A (prior to feeding) 0.001, p A vs B 0.049): 0.025
- Abundance of phylotype group Ruminococcus lactaris (97) / Clostridium oroticum (97) (fecal microbiota; B: 14 days after mucin feeding, A (prior to feeding) 0.004, p A vs B 0.0005): 0.062
- Abundance of phylotype group Clostridium hylemonae (98) / Muricomes intestini (98) / Clostridium oroticum (98) XIVa (fecal microbiota; B: 14 days after mucin feeding, A (prior to feeding) 0.005, p A vs B 0.040): 0.029
- Abundance of phylotype group Desulfovibrio desulfuricans (95) (fecal microbiota; B: 14 days after mucin feeding, A (prior to feeding) 0.008, p A vs B 0.035): 0.338
- Abundance of phylotype group Clostridium cellulovorans (89) / Christensenella massiliensis (88) (fecal microbiota; B: 14 days after mucin feeding, A (prior to feeding) 0.009, p A vs B 0.048): 0.045
- Abundance of phylotype group Eubacterium dolichum (93) (fecal microbiota; B: 14 days after mucin feeding, A (prior to feeding) 0.011, p A vs B 0.025): 0.106
- Abundance of phylotype group Clostridium viride (96) / Intestinimonas butyriciproducens (96) / Pseudoflavonifractor capillosus (95) (fecal microbiota; B: 14 days after mucin feeding, A (prior to feeding) 0.013, p A vs B 0.001): 0.062
- Abundance of phylotype group Roseburia faecis (95) (fecal microbiota; B: 14 days after mucin feeding, A (prior to feeding) 0.013, p A vs B 0.009): 0.124
- Abundance of phylotype group Ihubacter massiliensis (98) / E. timonensis (96) (fecal microbiota; B: 14 days after mucin feeding, A (prior to feeding) 0.014, p A vs B 0.002): 0.146
- Abundance of phylotype group Clostridium xylanolyticum (98) / C. aerotolerans (97) (fecal microbiota; B: 14 days after mucin feeding, A (prior to feeding) 0.014, p A vs B 0.008): 0.088
- Abundance of phylotype group Harryflintia acetispora (95) / Anaerotruncus colihominis (93) (fecal microbiota; B: 14 days after mucin feeding, A (prior to feeding) 0.017, p A vs B 0.043): 0.040
- Abundance of phylotype group Staphylococcus lentus (100) (fecal microbiota; B: 14 days after mucin feeding, A (prior to feeding) 0.024, p A vs B 0.030): 0.349
- Abundance of phylotype group Roseburia intestinalis (95) / Ruminococcus faecis (95) / E. rectale (95) (fecal microbiota; B: 14 days after mucin feeding, A (prior to feeding) 0.029, p A vs B 0.003): 0.113
- Abundance of phylotype group Eubacterium dolichum (92) (fecal microbiota; B: 14 days after mucin feeding, A (prior to feeding) 0.045, p A vs B 0.00003): 0.291
- Abundance of phylotype group Murimonas intestini (97) / Clostridium celerecrescens (96) XIVa (fecal microbiota; B: 14 days after mucin feeding, A (prior to feeding) 0.104, p A vs B 0.009): 0.300
- Abundance of phylotype group Anaerotaenia torta (96) / C. xylanolyticum (95) (fecal microbiota; B: 14 days after mucin feeding, A (prior to feeding) 0.168, p A vs B 1 × 10^−6): 0.421
- Abundance of phylotype group Olsenella profusa (95) (fecal microbiota; B: 14 days after mucin feeding, A (prior to feeding) 0.180, p A vs B 0.004): 4.883
- Abundance of phylotype group Clostridium cocleatum (99) (fecal microbiota; B: 14 days after mucin feeding, A (prior to feeding) 0.253, p A vs B 0.011): 7.822
- Abundance of phylotype group Muribaculum intesinale (92) (fecal microbiota; B: 14 days after mucin feeding, A (prior to feeding) 6.008, p A vs B 4 × 10^−7): 17.058
- Abundance of phylotype group Bifidobacterium pseudolongum (90) (fecal microbiota; [4]): 0.006
- Abundance of phylotype group Clostridium cellulolyticum (93) (fecal microbiota; [4]): 0.055
- Abundance of phylotype group Clostridium cellulovorans (89) / Christensenella massiliensis (88) (fecal microbiota; [4]): 0.038
- Abundance of phylotype group Clostridium cocleatum (99) (fecal microbiota; [4]): 3.099
- Abundance of phylotype group Clostridium hylemonae (98) / Muricomes intestini (98) / Clostridium oroticum (98) XIVa (fecal microbiota; [4]): 0.030
- Abundance of phylotype group Desulfovibrio desulfuricans (95) (fecal microbiota; [4]): 0.533
- Abundance of phylotype group Eubacterium dolichum (92) (fecal microbiota; [4]): 0.462
- Abundance of phylotype group Eubacterium dolichum (93) (fecal microbiota; [4]): 0.279
- Abundance of phylotype group Gracilibacter thermotolerans (89) / Christensenella massiliensis (88) (fecal microbiota; [4]): 0.020
- Abundance of phylotype group Murimonas intestini (97) / Clostridium celerecrescens (96) XIVa (fecal microbiota; [4]): 0.462
- Abundance of phylotype group Olsenella profusa (92) (fecal microbiota; [4]): 0.068
- Abundance of phylotype group Olsenella profusa (95) (fecal microbiota; [4]): 3.256
- Abundance of phylotype group Ruminococcus lactaris (97) / Clostridium oroticum (97) (fecal microbiota; [4]): 0.060
- Abundance of phylotype group Dubosiella newyorkensis (93) (fecal microbiota; C: 20 days post-tumor cell inoculation with mucin feeding, p B vs C 0.001): 0.005
- Abundance of phylotype group Corynebacterium ammoniagenes (99) (fecal microbiota; [5]): 0.002
- Abundance of phylotype group Harryflintia acetispora (95) / Anaerotruncus colihominis (93) (fecal microbiota; [5]): 0.172
- Abundance of phylotype group Clostridium viride (96) / Intestinimonas butyriciproducens (96) / Pseudoflavonifractor capillosus (95) (fecal microbiota; [6]): 0.113
- Abundance of phylotype group Muribaculum intesinale (92) (fecal microbiota; [6]): 11.857
- Abundance of phylotype group Roseburia intestinalis (95) / Ruminococcus faecis (95) / E. rectale (95) (fecal microbiota; [6]): 0.407
- Abundance of phylotype group Roseburia faecis (95) (fecal microbiota; [7]): 0.555
- Abundance of phylotype group Staphylococcus saprophyticus (100) (fecal microbiota; [7]): 0.006
- Abundance of phylotype group Christensenella timonensis (88) / Anaerotruncus colihominis (88) (fecal microbiota; C: 20 days post-tumor cell inoculation with mucin feeding, p B vs C 0.028): 0.027
- Abundance of phylotype group Staphylococcus lentus (100) (fecal microbiota; C: 20 days post-tumor cell inoculation with mucin feeding, p B vs C 0.034): 0.033
